US20240197666A1, “DITERPENOID COMPOUNDS THAT ACT ON PROTEIN KINASE C (PKC)” (K-Gen Therapeutics, Inc., priority 2021, published 2024)
Like-named read-outs stand apart in the source and are kept apart here.

Columns and labels:
KP-4 (Pancreatic) = experiment: Proliferation of KP-4; assay type: cell-based; settings: read-out: IC50 KP-4 (Pancreatic)
In short: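 Proliferation was measured in the K-Ras mutant pancreatic lines and in HL-60 and Namalwa cells. These were plated at densities set per line and left 24 h before compound was added. After 96 h with serially diluted compound, viability was read by CellTiter Glo and IC50 derived.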

Hela cells = experiment: In vitro scratch wound healing assay; assay type: cell-based; settings: 24h
Description: Scratch wound healing assay creates a gap by scratching a confluent monolayer of cells to mimic a wound and then measures the ability of cells to fill up the gap (wound) in the presence of DMSO or test compounds. 1.2-1.5×10^5 Hela cells in 1 mL media RPMI-1640 with 10% FBS were seeded in 24-well plates. Cells were starved for overnight in the same media without FBS when cells became confluent. After starvation, a scratch was made in the middle of the well and the plates were washed three times to remove detached cells. DMSO or different concentrations of compounds were diluted and added to the cells. The assay plates were put into Incucyte S3 and scanned with 4× scanner setting regularly. The imaging results were exported and the wound area was analyzed by ImageJ. Wound healing or closure was calculated by the following formula: wound healing %=(wound area at 0h−wound area at 24h)/wound area 0h*100%. Relative wound healing was calculated by dividing wound healing % of compound treatment to that of DMSO*100%.

Mino (Lymphoma) = experiment: Proliferation of Mino; assay type: cell-based; settings: for IC50: Homo sapiens, MINO, read-out: IC50 Mino (Lymphoma)
In short: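 Luminescent ATP read-out (CellTiter Glo) after 96 h compound exposure gave % inhibition relative to DMSO-treated cells, from which IC50 was fitted. Seeding densities were line-specific, from 800 to 10000 cells/well. Potency across batches was normalised to reference compound K101.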

[1] = test system: NFκB-driven transcription in HeLa-NFκB luciferase reporter cell line; experiment: NFκB luciferase reporter assay; settings: Homo sapiens, HeLa, 16 h, read-out: NFκB-luc HeLa cells EC50 (μM)
human PBMC cells = experiment: Cytokine/chemokine gene expression in human PBMC (TaqMan); assay type: cell-based; settings: 4 h;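 for Gene Relative Expression CCL2: 2^-ΔΔCt fold change vs DMSO control normalized to 18S and GAPDH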;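 for Gene Relative Expression GM-CSF: 2^-ΔΔCt fold change vs DMSO control normalized to 18S and GAPDH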;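 for Gene Relative Expression IFN-α: 2^-ΔΔCt fold change vs DMSO control normalized to 18S and GAPDH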;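 for Gene Relative Expression IFNγ: 2^-ΔΔCt fold change vs DMSO control normalized to 18S and GAPDH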
Description: Each treatment condition was performed in duplicates.

CC1=C[C@H]2[C@@]3(O)[C@H](C)C[C@]4(OC(=O)[C@@H](N)C5Cc6ccccc6C5)[C@H]([C@@H]3C=C(CO)C[C@]2(O)C1=O)C4(C)C
IC50 (KP-4 (Pancreatic); 96 h): 100 to 600 nM
Relative wound healing to control (%) (Hela cells; 30 nM): 210%
Relative wound healing to control (%) (Hela cells; 100 nM): 248%
Relative wound healing to control (%) (Hela cells; 300 nM): 238%
ratio (IC50 of K101)/(IC50 of compound) Mino (Mino (Lymphoma)): 5.5
IC50 (Mino (Lymphoma)): 10 to 30 nM
EC50 [1]: 0.06 to 0.1 µM

CC1=C[C@H]2[C@@]3(O)[C@H](C)C[C@]4(OC(=O)[C@H](N)CCCCCCc5ccccc5)[C@H]([C@@H]3C=C(CO)C[C@]2(O)C1=O)C4(C)C
Gene Relative Expression CCL2 (human PBMC cells; 0.03 μM): 4.55
Gene Relative Expression GM-CSF (human PBMC cells; 0.03 μM): 1.89
Gene Relative Expression IFN-α (human PBMC cells; 0.03 μM): 1.66
Gene Relative Expression IFNγ (human PBMC cells; 0.03 μM): 1.62
Gene Relative Expression IL-1β (human PBMC cells; 0.03 μM): 0.54
Gene Relative Expression IL-2 (human PBMC cells; 0.03 μM): 1.71
Gene Relative Expression IL-6 (human PBMC cells; 0.03 μM): 0.74
Gene Relative Expression IL-8 (human PBMC cells; 0.03 μM): 0.80
Gene Relative Expression IL-10 (human PBMC cells; 0.03 μM): 1.27
Gene Relative Expression IL-12p40 (human PBMC cells; 0.03 μM): 0.74
Gene Relative Expression IL-12p70 (human PBMC cells; 0.03 μM): 1.02
Gene Relative Expression IL-13 (human PBMC cells; 0.03 μM): 0.40
Gene Relative Expression IL-18 (human PBMC cells; 0.03 μM): 0.47
Gene Relative Expression ISG15 (human PBMC cells; 0.03 μM): 0.97
Gene Relative Expression MIP1a (CCL3) (human PBMC cells; 0.03 μM): 1.86
Gene Relative Expression MX1 (human PBMC cells; 0.03 μM): 0.65
Gene Relative Expression OAS1 (human PBMC cells; 0.03 μM): 0.64
Gene Relative Expression TNF-α (human PBMC cells; 0.03 μM): 1.38
Gene Relative Expression CCL2 (human PBMC cells; 0.10 μM): 3.12
Gene Relative Expression GM-CSF (human PBMC cells; 0.10 μM): 7.74
Gene Relative Expression IFN-α (human PBMC cells; 0.10 μM): 0.73
Gene Relative Expression IFNγ (human PBMC cells; 0.10 μM): 3.47
Gene Relative Expression IL-1β (human PBMC cells; 0.10 μM): 1.58
Gene Relative Expression IL-2 (human PBMC cells; 0.10 μM): 7.65
Gene Relative Expression IL-4 (human PBMC cells; 0.10 μM): 1.61
Gene Relative Expression IL-6 (human PBMC cells; 0.10 μM): 1.14
Gene Relative Expression IL-8 (human PBMC cells; 0.10 μM): 0.53
Gene Relative Expression IL-10 (human PBMC cells; 0.10 μM): 0.48
Gene Relative Expression IL-12p40 (human PBMC cells; 0.10 μM): 0.45
Gene Relative Expression IL-12p70 (human PBMC cells; 0.10 μM): 0.93
Gene Relative Expression IL-13 (human PBMC cells; 0.10 μM): 47.45
Gene Relative Expression IL-18 (human PBMC cells; 0.10 μM): 0.09
Gene Relative Expression ISG15 (human PBMC cells; 0.10 μM): 1.16
Gene Relative Expression MIP1a (CCL3) (human PBMC cells; 0.10 μM): 2.39
Gene Relative Expression MX1 (human PBMC cells; 0.10 μM): 0.72
Gene Relative Expression OAS1 (human PBMC cells; 0.10 μM): 0.55
Gene Relative Expression TNF-α (human PBMC cells; 0.10 μM): 4.04
Gene Relative Expression CCL2 (human PBMC cells; 0.3 μM): 2.09
Gene Relative Expression GM-CSF (human PBMC cells; 0.3 μM): 10.50
Gene Relative Expression IFN-α (human PBMC cells; 0.3 μM): 0.95
Gene Relative Expression IFNγ (human PBMC cells; 0.3 μM): 18.57
Gene Relative Expression IL-1β (human PBMC cells; 0.3 μM): 1.53
Gene Relative Expression IL-2 (human PBMC cells; 0.3 μM): 3.41
Gene Relative Expression IL-4 (human PBMC cells; 0.3 μM): 2.57
Gene Relative Expression IL-6 (human PBMC cells; 0.3 μM): 4.85
Gene Relative Expression IL-8 (human PBMC cells; 0.3 μM): 0.59
Gene Relative Expression IL-10 (human PBMC cells; 0.3 μM): 0.06
Gene Relative Expression IL-12p40 (human PBMC cells; 0.3 μM): 0.69
Gene Relative Expression IL-12p70 (human PBMC cells; 0.3 μM): 0.61
Gene Relative Expression IL-13 (human PBMC cells; 0.3 μM): 78.90
Gene Relative Expression IL-18 (human PBMC cells; 0.3 μM): 0.04
Gene Relative Expression ISG15 (human PBMC cells; 0.3 μM): 1.14
Gene Relative Expression MIP1a (CCL3) (human PBMC cells; 0.3 μM): 3.37
Gene Relative Expression MX1 (human PBMC cells; 0.3 μM): 0.57
Gene Relative Expression OAS1 (human PBMC cells; 0.3 μM): 0.42
Gene Relative Expression TNF-α (human PBMC cells; 0.3 μM): 4.13
IC50 (KP-4 (Pancreatic)): 30 to 60 nM
Relative wound healing to control (%) (Hela cells; 10 nM): 221%
Relative wound healing to control (%) (Hela cells; 30 nM): 239%
Relative wound healing to control (%) (Hela cells; 100 nM): 263%
ratio (IC50 of K101)/(IC50 of compound) Mino (Mino (Lymphoma)): 21.3
IC50 (Mino (Lymphoma)): 1 to 10 nM
EC50 [1]: 0.01 to 0.03 µM
